{
  "source": "patent US20080031894A1",
  "about": "“Beta acid based protein kinase modulation cancer treatment” (Metaproteomics, LLC, priority 2006, published 2008)",
  "key": {"adiponectin secretion [1]": {"tested_on": "adiponectin secretion", "assay": "Adiponectin secretion from insulin-resistant 3T3-L1 adipocytes", "assay_type": "cell-based, murine", "description": "3T3-L1 cells were seeded at an initial density of 1×10^4 cells/cm^2 in 96-well plates. For two days, the cells were allowed grow to reach confluence. Following confluence, the cells were forced to differentiate into adipocytes by the addition of differentiation medium; this medium consisted of (1) 10% FBS/DMEM (high glucose); (2) 0.5 mM methylisobutylxanthine; (3) 0.5 μM dexamethasone and (4) 10 μg/ml insulin (MDI medium). From Day 3 through Day 5, the medium was changed to post-differentiation medium consisting of 10 μg/ml insulin in 10% FBS/DMEM.\nBriefly, on Day 6, cells were maintained in serum-free media containing 0.5% bovine serum albumin (BSA) for three hours and then treated with 1 μg insulin/ml plus solvent or insulin plus test material. […] Twenty-four hours later, the supernatant medium was sampled for adiponectin determination.\n(§1) Adiponectin Assay—The adiponectin secreted into the medium was quantified using the Mouse Adiponectin Quantikine® Immunoassay kit with no modifications (R&D Systems, Minneapolis, Minn.).\nStatistical Calculations and Interpretation—All assays were preformed in duplicate. […] Differences between the doses were determined using the student's t-test without correction for multiple comparisons; the nominal five percent probability of a type I error was selected. […]"}, "adiponectin secretion [2]": {"tested_on": "adiponectin secretion", "assay": "Adiponectin secretion in LPS/3T3-L1 adipocytes", "assay_type": "cell-based, murine", "conditions": "LPS 100 ng/ml; for adiponectin secretion, in words: any of the doses tested"}, "adiponectin secretion [3]": {"tested_on": "adiponectin secretion", "assay": "Adiponectin secretion from TNFα-treated 3T3-L1 adipocytes", "assay_type": "cell-based, murine", "conditions": "for maximum increase of adiponectin secretion from the TNFα control: 10 ng/ml TNFα", "description": "3T3-L1 cells were seeded at an initial density of 1×10^4 cells/cm^2 in 96-well plates. For two days, the cells were allowed grow to reach confluence. Following confluence, the cells were forced to differentiate into adipocytes by the addition of differentiation medium; this medium consisted of (1) 10% FBS/DMEM (high glucose); (2) 0.5 mM methylisobutylxanthine; (3) 0.5 μM dexamethasone and (4) 10 μg/ml insulin (MDI medium). From Day 3 through Day 5, the medium was changed to post-differentiation medium consisting of 10% FBS in DMEM. […] On Day 6, the supernatant medium was sampled for adiponectin determination.\nas §1\nStatistical Calculations and Interpretation—All assays were preformed in duplicate. […] Differences among the doses and test agents were determined using the Student's t-test without correction for multiple comparisons; the nominal five percent probability of a type I error was selected."}, "[4]": {"assay": "Non-fasting serum glucose and insulin in db/db diabetic mice, three days", "assay_type": "in vivo, mouse", "conditions": "three consecutive days by gavage", "description": "The Model—Male, C57BLKS/J m^+/m^+ Lepr^db (db/db) mice were used to assess the potential of the test materials to reduce fasting serum glucose or insulin concentrations. This strain of mice is resistant to leptin by virtue of the absence of a functioning leptin receptor.\nTesting Procedure—Test substances were administered daily by gavage in 0.2% Tween-80. Serum was collected from the retroorbital sinus before the initial dose and ninety minutes after the third and final dose. Non-fasting serum glucose was determined enzymatically by the mutarotase/glucose oxidase method and serum insulin was determined by a mouse specific ELISA."}, "[5]": {"tested_on": "human PI3K-β, PI3K-γ, and PI3K-δ", "assay": "Effect of hops components on PI3K activity (FIG. 3)", "assay_type": "biochemical", "conditions": "50 μg/ml", "method": "Additionally examined was an Acacia nilotica heartwood extract. All compounds were tested at 50 μg/ml. The results are presented graphically as FIG. 3."}, "PGE2 biosynthesis": {"tested_on": "PGE2 biosynthesis", "assay": "PGE2 biosynthesis in A549 pulmonary epithelial cells stimulated by mite dust allergen", "assay_type": "cell-based, human", "conditions": "10 μg/ml, added 60 minutes prior to mite dust allergen", "source_text": "Mite dust allergen isolation—Dermatophagoides farinae is the American house dust mite. D. farinae were raised on a 1:1 ratio of Purina Laboratory Chow (Ralston Purina, Co, St. Louis, Mo.) and Fleischmann's granulated dry yeast (Standard Brands, Inc. New York, N.Y.) at room temperature and 75% humidity. Live mites were aspirated from the culture container as they migrated from the medium, killed by freezing, desiccated and stored at 0% humidity. The allergenic component of the mite dust was extracted with water at ambient temperature. Five-hundred mg of mite powder were added to 5 ml of water (1:10 w/v) in a 15 ml conical centrifuge tube (VWR, Rochester, N.Y.), shaken for one minute and allowed to stand overnight at ambient temperature. The next day, the aqueous phase was filtered using a 0.2 μm disposable syringe filter (Nalgene, Rochester, N.Y.). The filtrate was termed mite dust allergen and used to test for induction of PGE2 biosynthesis in A549 pulmonary epithelial cells.\nCell culture and treatment—The human airway epithelial cell line, A549 (American Type Culture Collection, Bethesda, Md.) was cultured and treated as previously described in Example 6. Mite allergen was added to the culture medium to achieve a final concentration of 1000 ng/ml. Eighteen hours later, the media were sampled for PGE2 determination."}, "IL-6": {"tested_on": "IL-6", "assay": "Serum IL-6 in collagen induced arthritis murine model", "assay_type": "in vivo, mouse", "conditions": "10 mg/kg"}},
  "note": "Marks after values point to notes of the source that are not given here.",
  "data": [
    {"molecule": "CC(C)CCC1=C(O)C(C(=O)C(C)C)=C(O)C(CCC(C)C)(CCC(C)C)C1=O", "note": "[Hexahydro-colupulone (HHCL)]", "values": [
      {"measurement": "Adiponectin/IL-6", "setting": "adiponectin secretion [1]; 50.0 μg/ml, ratio of indexes (Table 21)", "value": "0.60#"}
    ]},
    {"molecule": "CC(C)CCC1=C(O)C(C(=O)C(C)C)=C(O)C(CCC(C)C)(CCC(C)C)C1=O", "note": "[hexahydrocolupulone]", "values": [
      {"measurement": "concentration required for half maximal adiponectin secretion", "setting": "adiponectin secretion [1]; Hofstee plot slope", "value": 3.2, "unit": "µg/mL"}
    ]},
    {"molecule": "COc1ccc2c(c1)c(CC(=O)O)c(C)n2C(=O)c1ccc(Cl)cc1", "note": "[Indomethacin]", "values": [
      {"measurement": "Maximum adiponectin stimulation", "setting": "adiponectin secretion [2]; […]", "value": 9, "unit": "%"}
    ]},
    {"molecule": "CCc1ccc(CCOc2ccc(CC3SC(=O)NC3=O)cc2)nc1", "note": "(stereo not drawn) [Pioglitazone]", "values": [
      {"measurement": "Adiponectin Index (relative maximum)", "setting": "adiponectin secretion [3]; 10 ng TNFα/ml, [Adiponectin]Test/[Adiponectin]TNFα control", "value": 1.47},
      {"measurement": "maximum increase of adiponectin secretion from the TNFα control", "setting": "adiponectin secretion [3]", "value": 80, "unit": "%"},
      {"measurement": "Adiponectin Index Observed", "setting": "adiponectin secretion [3]; 1.0 μg/ml, indexed to TNFα control (Table 26)", "value": 1.80},
      {"measurement": "Maximum adiponectin stimulation", "setting": "adiponectin secretion [2]; […]", "value": 12, "unit": "%"}
    ]},
    {"molecule": "CN(C)C(=N)N=C(N)N", "note": "[metformin]", "values": [
      {"measurement": "serum glucose, in words", "setting": "[4]", "value": "decreased"}
    ]},
    {"molecule": "COc1cc(O)c(CC=C(C)C)c(O)c1C(=O)/C=C/c1ccc(O)cc1", "note": "[xanthohumol]", "values": [
      {"measurement": "serum glucose, in words", "setting": "[4]", "value": "reduction in serum glucose"},
      {"measurement": "serum insulin, in words", "setting": "[4]", "value": "no effect on insulin"},
      {"measurement": "PI3K isoform effect, in words", "setting": "[5]", "value": "more inhibitory to PI3K-γ than to PI3K-β or PI3K-δ"}
    ]},
    {"molecule": "CC(C)Cc1ccc(C(C)C(=O)O)cc1", "note": "(stereo not drawn) [ibuprofen]", "values": [
      {"measurement": "Maximum adiponectin stimulation", "setting": "adiponectin secretion [2]; 0.625 μg/ml", "value": 22, "unit": "%"}
    ]},
    {"molecule": "Cc1c(C)c2c(c(C)c1O)CCC(C)(COc1ccc(CC3SC(=O)NC3=O)cc1)O2", "note": "(stereo not drawn) [Troglitazone]", "values": [
      {"measurement": "maximum increase of adiponectin secretion from the TNFα control", "setting": "adiponectin secretion [3]", "value": 51, "unit": "%"},
      {"measurement": "Maximum adiponectin stimulation", "setting": "adiponectin secretion [2]; 0.625 μg/ml", "value": 15, "unit": "%"}
    ]},
    {"molecule": "Beta acids", "values": [
      {"measurement": "Percent PGE2 Inhibition", "setting": "PGE2 biosynthesis", "value": 83, "unit": "%"}
    ]},
    {"molecule": "O=C(O)c1ccccc1O", "note": "[salicylic acid]", "values": [
      {"measurement": "adiponectin secretion, in words", "setting": "adiponectin secretion [2]", "value": "failed to induce adiponectin secretion"}
    ]},
    {"molecule": "C[C@]12C=CC(=O)C=C1CC[C@@H]1[C@@H]2[C@@H](O)C[C@@]2(C)[C@H]1CC[C@]2(O)C(=O)CO", "note": "[prednisolone]", "values": [
      {"measurement": "serum IL-6 levels, in words", "setting": "IL-6", "value": "reached a statistical significance"}
    ]},
    {"molecule": "CC(=O)Oc1ccccc1C(=O)O", "note": "[Aspirin]", "values": [
      {"measurement": "adiponectin secretion, in words", "setting": "adiponectin secretion [2]", "value": "failed to induce adiponectin secretion"}
    ]}
  ]
}
